Reference: patent US8269010B2, “3-amino-pyridine derivatives for the treatment of metabolic disorders” (Piramal Healthcare Limited, priority 2006, dated 2012)
Where “and” joins values, the source holds several entries; their conditions need not be identical. Equal values may be shown once.

Tests used:
[1] = target: T1, Human PPARγ (Homo sapiens, UniProt P37231); assay: Human PPARγ transactivation assay (luciferase reporter, HEK293 cells); assay type: cell-based; conditions: 48 hours
T1 construct: Human full length PPARγ cDNA was cloned into pSG5 expression vector; expressed in transfected cells; host or cells: HEK293 cells
T1 sequence (P37231 1-505): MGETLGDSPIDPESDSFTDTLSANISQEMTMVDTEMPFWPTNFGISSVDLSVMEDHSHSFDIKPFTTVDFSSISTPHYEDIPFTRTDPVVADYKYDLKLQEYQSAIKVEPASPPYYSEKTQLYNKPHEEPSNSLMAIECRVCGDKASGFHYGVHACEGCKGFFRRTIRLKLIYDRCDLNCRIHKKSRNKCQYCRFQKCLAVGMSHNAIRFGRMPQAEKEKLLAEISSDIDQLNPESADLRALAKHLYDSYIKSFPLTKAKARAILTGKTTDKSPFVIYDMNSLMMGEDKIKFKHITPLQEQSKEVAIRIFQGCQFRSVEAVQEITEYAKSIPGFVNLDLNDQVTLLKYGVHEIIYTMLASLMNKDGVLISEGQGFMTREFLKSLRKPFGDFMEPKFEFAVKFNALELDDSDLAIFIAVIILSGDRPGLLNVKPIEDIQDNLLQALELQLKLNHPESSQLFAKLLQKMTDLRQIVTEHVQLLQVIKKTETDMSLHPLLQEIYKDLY
Experimental: The assay was designed as in the reference, Biochem. Biophys. Res. Comm. 175:865-871, 1991, the disclosure of which is incorporated by reference for the teaching of the assay. Human PPARγ activity was evaluated by transactivation using a luciferase reporter gene. The pBL-TK-luciferase reporter plasmid AOX-3×PPRE-TK-LUC contains three copies of the rat acyl CoA oxidase PPRE cloned upstream of the minimal herpes simplex virus thymidine kinase (TK) promoter. Human full length PPARγ cDNA was cloned into pSG5 expression vector (Stratagene, Lo Jolla, Calif.).
HEK293 cells were seeded in 24 well plates and grown in DMEM supplemented with 10% (v/v) FCS. After 24 hours, they were transfected with 100 ng of hPPARγ receptor and 300 ng of AOX-3×PPRE-LUC reporter construct per well using Fugen 6 transfection reagent (Roche, Indianapolis, Ind.). […] The control was 0.1% DMSO. After 48 hours, transactivation activity was determined by luciferase assay using Steady Glow reagent (Promega, Madison, Wis.).

[2] = system: insulin resistant adipocytes (3T3 L1); assay: In vitro model exhibiting insulin resistance (IR assay): 14C-2-deoxyglucose uptake; assay type: cell-based; conditions: glucose uptake; for fold induction at 10 µM: Mus musculus, dexamethasone-induced insulin resistant 3T3 L1 adipocytes, test compound 10 μM/mL, vehicle = 1.0, cut off 1.50 fold, read-out: Fold activity (fold activity over vehicle); for % of Rosiglitazone (comparison with Rosiglitazone): insulin resistant 3T3 L1 adipocytes, test compound 10 μM vs Rosiglitazone 0.1 μM
Experimental: The assay was designed as in the reference, British Journal of Pharmacology, 130, 351-58, 2000, the disclosure of which is incorporated by reference for the teaching of the assay. The solution of test compound (10 μM/mL) was prepared in DMSO. […] Differentiation into adipocytes was induced by the known methods as described below. (See, also, J. Biol. […] 3T3 L1 fibroblasts were seeded in 24- or 6-well plates at a density of 0.5−2×10^4 cells/well and were allowed to reach maximal confluency. The confluent fibroblasts were exposed to culture medium for 2 days. […] The mature adipocytes were exposed to dexamethasone, 100 nM added in ethanol, in culture medium and incubated for 2 days. […] The test compound was also present during this period. After 3-4 hours, the medium was aspirated and replaced with Kreb's Ringer phosphate (KRP) buffer at pH 7.4 and with human/porcine insulin, 200 nM. The cells were incubated for 30 minutes at 37° C. […] After exactly 5 minutes, the plates were transferred to ice trays and medium was rapidly aspirated. The cell layer was washed twice with ice-cold phosphate buffered saline, (PBS), pH 7.4. […] Non-specific glucose uptake was assayed in wells exposed to cytochalasin B, inhibitor of glucose transport. […] Statistical analysis was performed using unpaired t-test.

[3] = system: genetically diabetic db/db BL/6J mice; assay: Screening in db/db BL/6J mice: reduction of plasma glucose levels; assay type: in vivo; conditions: 10 days
Experimental: The protocol was designed as in references. • 1.
The screening of compounds was based on their ability to reduce the plasma glucose levels in genetically diabetic db/db BL/6J mice.
Male db/db mice (obtained from the Animal House of Nicholas Piramal Research Centre, Goregaon, Mumbai, India) were used for this study (body weight in the range of 30-40 g and age is 6-8 weeks) and were kept eight per cage in individually ventilated cages at controlled temperature (22±1° C.) and humidity (45±5%). Food and water were provided ad libitum during their laboratory stay, except for four hours fasting prior to blood sample collection. 12 hours light and dark cycle was followed during the whole study period.
After 4 hours fasting blood samples were collected from mice. Mice showing plasma glucose levels between 300 to 500 mg/dl were divided in groups (8-10 per group) such that the mean plasma glucose levels and variation within the group, for each group, is nearly same. After grouping, mice in respective groups received treatment with 0.5% CMC vehicle, standard compound or test compounds for 10 days.
After 4 hours fasting, mice were anaesthetized using isoflurane (inhalation anesthetic), and blood samples were collected through the retro orbital plexus. Collected blood samples were centrifuged at 7000 rpm for 10 minutes at 4° C.; Separated plasma was used for estimation of plasma glucose using diagnostic kits (Diasys, Germany). Plasma glucose levels of treated groups were normalized with control group using the following formula, which accounted for the changes in control group.
Formula used for normalization was *:{1−[…]}×100.

[4] = system: db/db mice; assay: Evaluation of lipid levels (dyslipidemia) in db/db mice; assay type: in vivo; conditions: oral bid 15 days
Experimental: The assay was designed as in the reference, Metabolism, 49 (1), 22-31, 2000, the disclosure of which is incorporated by reference for the teaching of the assay. Seven groups of male db/db mice (8 animals per group) were used. […] Body weight was measured daily. On day 15, the animals were deprived of food for 4 hours after the last dose administration. Blood was collected at the end of the 4-hour period using heparinised capillaries by a retro-orbital puncture. Plasma samples were analyzed for glucose, triglyceride, cholesterol, using the autoanalyser.

[5] = target: T2, Mouse PPARγ (Mus musculus, UniProt P37238); assay: Mouse PPARγ assay (TransAM PPARγ ELISA, 3T3-L1 fibroblasts); assay type: cell-based; conditions: test compound 50 μM, 72 hrs
T2 construct: endogenous in cells; host or cells: 3T3-L1 fibroblasts
T2 sequence (P37238 1-505): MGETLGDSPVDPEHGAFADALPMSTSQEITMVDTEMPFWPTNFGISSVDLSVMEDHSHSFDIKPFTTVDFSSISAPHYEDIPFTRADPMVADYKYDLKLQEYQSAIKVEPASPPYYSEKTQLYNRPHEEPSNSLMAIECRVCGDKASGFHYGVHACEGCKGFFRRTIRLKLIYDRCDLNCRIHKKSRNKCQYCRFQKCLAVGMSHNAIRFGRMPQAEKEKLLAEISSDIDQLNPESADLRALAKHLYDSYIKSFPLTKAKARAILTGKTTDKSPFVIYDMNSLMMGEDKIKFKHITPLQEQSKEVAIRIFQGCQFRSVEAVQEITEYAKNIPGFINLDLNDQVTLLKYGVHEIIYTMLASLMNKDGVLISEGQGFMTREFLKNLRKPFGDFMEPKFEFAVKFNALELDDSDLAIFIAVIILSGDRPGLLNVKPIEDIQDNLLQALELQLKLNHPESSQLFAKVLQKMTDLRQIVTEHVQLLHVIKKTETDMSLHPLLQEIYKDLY
Experimental: The assay was designed as in the reference, Blood, 104(5), 1361-8, 2004, the disclosure of which is incorporated by reference for the teaching of the assay.
3T3-L1 fibroblasts were seeded in 6-well plates at a density of 4×10^4 cells/well and cultured in DMEM containing 10% calf serum. After 4-5 days, when the cells become confluent, each of test compound was added (from a 20 mM stock in DMSO) to the final concentration of 50 μM in DMEM supplemented with 10% FCS. […] The plates were incubated for 72 hrs at 37° C. in a CO2 incubator with fresh medium containing test substances added after first 48 hrs. After 72 hrs, the medium was removed; the cell layer was washed and processed for the PPARγ assay as per the instruction of the manufacturer (Active Motif, North America, California, USA). PPARγ activation was determined using 96-well ELISA assay as per the instruction manual (TransAM PPARγ. Active Motif, Cat 0.40196). Assay Readout was absorbance output from spectrophotometer for the mouse PPARγ assay. Luminescence data output was recorded for the human PPARγ assay.

| PPARγ activity (% of rosiglitazone) [1] [%] | melting point [°C] | PPARγ activity (% of rosiglitazone) [5] [%] | Structure (SMILES) | fold induction at 10 µM [2] | % of Rosiglitazone (comparison with Rosiglitazone) [2] [%] | Normalization with control (plasma glucose) ([3]; 100 mpk bid) | decrease in plasma triglyceride levels ([4]; Rosiglitazone 5 mpk) [%] | reduction in cholesterol levels ([4]; Rosiglitazone 5 mpk) [%] | Normalization with control (plasma glucose) ([3]; Rosiglitazone 5 mpk bid) | Normalization with control (plasma glucose) ([3]; Rosiglitazone 10 mpk od) | lowering lipid levels compared with Rosiglitazone [4] | reduction in cholesterol levels ([4]; doses higher than 50 mpk) [%] | Normalization with control (plasma glucose) ([3]; 150 mpk od) |
| --- | --- | --- | --- | --- | --- | --- | --- | --- | --- | --- | --- | --- | --- |
| 19.3 |  |  | COc1ccc(S(=O)(=O)Nc2cnc(Oc3cnc4ccccc4c3)c(Cl)c2)cc1 [Example 26, N-(5-Chloro-6-(quinolin-3-yloxy)pyridin-3-yl)-4-methoxybenzenesulfonamide] | 2.19 ± 0.09 | 66.48 ± 5.26 | 41.90 ± 3.84 |  |  |  |  |  |  |  |
|  |  |  | CN(CCOc1ccc(CC2SC(=O)NC2=O)cc1)c1ccccn1 (stereo not shown) [Rosiglitazone, reference compound] |  |  |  | 40 | 27 | 54.52 ± 4.92 and 107.9 ± 15.1 and 83.6 ± 12.8 | 93.8 ± 22.7 and 55.0 ± 11.4 |  |  |  |
| 23 | 203 to 205 | 12.4 | O=S(=O)(Nc1cnc(Oc2cc3ccccc3cn2)c(Cl)c1)c1ccc(Cl)cc1Cl [Example 1, 2,4-Dichloro-N-(5-chloro-6-(isoquinolin-3-yloxy)pyridin-3-yl)benzenesulfonamide] | 2.41 ± 0.06 | 78.75 ± 3.55 |  |  |  |  |  | as efficacious as Rosiglitazone | 26 | 43.2 ± 15.7 |
